# Results reported in patent US20160291027A1, “METHODS FOR […] ABILITY OF A Z[…] COMPOUND TO TREAT CANCER” (Eisai R&D Management Co., Ltd., priority 2007, published 2016).
# Experiments:
# [1] = tested on: BRAF mutant (V600E) melanoma cell lines; test: Cell growth assay in BRAF mutant (V600E) melanoma cell lines; type: cell-based; details: continuous presence of compound
# Description: In a separate experiment, Compound 106 was tested in a panel of BRAF mutant (V600E) melanoma cell lines. (This set of cell lines represents 17 additional cell lines relative to FIG. 3C.) The melanoma cell lines were introduced into 96-well plates and grown in the absence or continuous presence of compound 106. IC50 values were determined as the concentration of a substance which inhibits cell growth by 50% compared to untreated cell populations.
# [2] = tested on: IL-6 secretion by LOX human melanoma cells; test: IL-6 secretion by LOX melanoma cells (ELISA); type: cell-based; details: 24 hours
# Description: Compound 106 (5.0 mg) was weighed and dissolved in 100% anhydrous DMSO (dimethyl sulfoxide, Sigma-Aldrich®, St. Louis, Mo.) to produce a 10 mmol/L stock solution of 3.89 mg/mL. Aliquots of the 10 mmol/L stock solution were stored at −80° C. Then, on each day of an experiment, an aliquot of the stock solution was thawed and diluted 1:10 by adding RPMI-1640 culture medium to obtain a 1 mmol/L solution. Four serial 1:10 dilutions were made from 1 mmol/L working solution by adding 10% DMSO in RPMI-1640 culture medium to obtain 4 additional working solutions. Each of these working stock solutions was further diluted with culture media to obtain diluted working solutions ranging from 1 nmol/L to 10,000 nmol/L. Five mL of each of these diluted working solutions was added to each dish.
# LOX human melanoma cells were originally obtained from the DCTD Tumor Repository (Frederick, Md.). The cells were grown in monolayer cultures in RPMI-1640 growth media containing 10% fetal bovine serum (FBS) at 37° C. in a 5% CO2 humidified incubator.
# LOX human melanoma cells were plated at 1×10^6 cells into 100 mm dishes. After 48 hours, cells were washed three times with phosphate buffered saline (PBS) and were cultured with RPMI-1640 medium containing 0.1% FBS for another 24 hours. After removing the cell culture medium, fresh RPMI-1640 medium containing Compound 106 (1, 10, 100, 1000, or 10,000 nmol/L) was added to each culture dish and incubated for 24 hours (see Table 5). The control received 0.1% DMSO in RPMI-1640 culture medium alone to measure spontaneous secretion of IL-6 and IL-8. Three separate experiments were performed in duplicate to calculate the mean±SEM.
# After a 24 hour incubation with Compound 106 or 0.1% DMSO, 5 mL of cell culture supernatant was collected. Any particulate material was removed by centrifugation. All samples were stored in the −80° C. freezer until analysis. Human IL-6 or IL-8 was determined using an ELISA kit (Human IL-8 ELISA Set, Catalog No. 555244, BD Biosciences, San Diego, Calif. and Human IL-6 ELISA Set, Catalog No. 555220, BD Biosciences, San Diego, Calif.) with the assay procedure provided by the kits. Absorbance was read on a VERSAMAX™ (Molecular Devices, now part of MDS Analytical Technologies, Sunnyvale Calif.).
# After removing the cell culture supernatant, 1.0 mL of trypsin was added to the cells for 3 minutes, and then 4 mL of media containing 10% FBS was added for cell counting. Cells were counted using a hematocytometer (Bright Line Counting Chamber, Hausser Scientific, Horsham, Pa.) with a depth of 0.1 mm. The total number of cells was calculated as follows:
# Total number of cells in 5 mL=C×10^4/mL×5 mL(C: actual cell count in 1 mm^2)
# The level of IL-6 or IL-8 was determined as ng/1×10^6 cells. Inhibition of IL-6 or IL-8 secretion by Compound 106 was expressed as percent of control using the formula below:
# Percent of control=(value of treatment−mean value of blank)/(value of control−mean value of blank)×100
# The software, Graphpad Prism® (ver. 4, San Diego, Calif.) was used for calculation of mean IC50 values.
# [3] = tested on: SF-295 human glioblastoma xenografts; test: Plasma human IL-8 (ELISA) in tumor bearing mice; type: in vivo; details: SF-295 tumor bearing mice; 40 mg/kg i.v. QD×4; 24 hours after the fourth dosing
# Description: (§1) In order to determine whether plasma IL-8 levels could be measurable in tumor xenograft bearing mice and whether plasma IL-8 levels change after treatment with Compound 106, COLO-829 and UACC-62 melanoma xenografts were established as Compound 106 sensitive xenografts in female nude mice. SF-295 human glioblastoma (BRAF wild-type) xenografts were established as an Compound 106 resistant tumor model in female nude mice. Female athymic NU/NU mice were inoculated subcutaneously with COLO-829, UACC-62 human melanoma cancer cells, or SF-295 human glioblastoma cells. Those animals that developed tumors of approximately 250 mm^3 were selected and randomized to two groups. The experiment consisted of a vehicle-treated and 40 mg/kg Compound 106-treated groups of 8 mice per group on the first day of treatment. Compound 106 was administered intravenously (i.v.) on a QD×4 (every day for a total of four injections) dosing schedule. The subcutaneous tumor volumes were measured on the first day of treatment and 24 hours after the fourth treatment. Heparinized blood was collected from these mice 24 hours after the fourth treatment with Compound 106 using a cardiac puncture, and plasma was isolated. The levels of human IL-8 in the plasma were determined by ELISA.
# [4] = tested on: COLO-829 melanoma xenografts; test: Plasma human IL-8 (ELISA) in tumor bearing mice; type: in vivo; details: COLO-829 xenograft; 40 mg/kg i.v. QD×4; 24 hours after the fourth dosing
# Description: as §1
# [5] = tested on: UACC-62 melanoma xenografts; test: Plasma human IL-8 (ELISA) in tumor bearing mice; type: in vivo; details: UACC-62 xenograft; 40 mg/kg i.v. QD×4; 24 hours after the fourth dosing
# Description: as §1
smiles,measurement,setting,value
CCNc1cc(O)c2c(c1)/C=C/C[C@H](O)[C@H](O)C(=O)/C=C\[C@@H](C)[C@H](C)OC2=O [Compound 106],Sensitivity of cell lines with BRAF mutation and wild-type PTEN status,[1],very sensitive
same,IL-6 (ng/million cells) Mean,[2]; 1 nmol/L,9.9 ng/million cells
same,IL-6 (pg/million cells) Experiment 1,[2]; 1 nmol/L,5890 pg/million cells
same,IL-6 (pg/million cells) Experiment 2,[2]; 1 nmol/L,13741 pg/million cells
same,IL-6 (pg/million cells) Experiment 3,[2]; 1 nmol/L,10140 pg/million cells
same,"Protein level of IL-6, Percent (%) of control Experiment 1",[2]; 1 nmol/L,46.1%
same,"Protein level of IL-6, Percent (%) of control Experiment 2",[2]; 1 nmol/L,53.6%
same,"Protein level of IL-6, Percent (%) of control Experiment 3",[2]; 1 nmol/L,115.0%
same,IL-6 (ng/million cells) Mean,[2]; 10 nmol/L,8.7 ng/million cells
same,IL-6 (pg/million cells) Experiment 1,[2]; 10 nmol/L,3253 pg/million cells
same,IL-6 (pg/million cells) Experiment 2,[2]; 10 nmol/L,12105 pg/million cells
same,IL-6 (pg/million cells) Experiment 3,[2]; 10 nmol/L,10745 pg/million cells
same,"Protein level of IL-6, Percent (%) of control Experiment 1",[2]; 10 nmol/L,21.5%
same,"Protein level of IL-6, Percent (%) of control Experiment 2",[2]; 10 nmol/L,47.1%
same,"Protein level of IL-6, Percent (%) of control Experiment 3",[2]; 10 nmol/L,121.3%
same,IL-6 (ng/million cells) Mean,[2]; 100 nmol/L,0.5 ng/million cells
same,IL-6 (pg/million cells) Experiment 1,[2]; 100 nmol/L,347 pg/million cells
same,IL-6 (pg/million cells) Experiment 2,[2]; 100 nmol/L,643 pg/million cells
same,IL-6 (pg/million cells) Experiment 3,[2]; 100 nmol/L,485 pg/million cells
same,"Protein level of IL-6, Percent (%) of control Experiment 1",[2]; 100 nmol/L,2.9%
same,"Protein level of IL-6, Percent (%) of control Experiment 2",[2]; 100 nmol/L,2.5%
same,"Protein level of IL-6, Percent (%) of control Experiment 3",[2]; 100 nmol/L,5.5%
same,IL-6 (ng/million cells) Mean,"[2]; 1,000 nmol/L",0.6 ng/million cells
same,IL-6 (pg/million cells) Experiment 1,"[2]; 1,000 nmol/L",547 pg/million cells
same,IL-6 (pg/million cells) Experiment 2,"[2]; 1,000 nmol/L",986 pg/million cells
same,IL-6 (pg/million cells) Experiment 3,"[2]; 1,000 nmol/L",257 pg/million cells
same,"Protein level of IL-6, Percent (%) of control Experiment 1","[2]; 1,000 nmol/L",4.6%
same,"Protein level of IL-6, Percent (%) of control Experiment 2","[2]; 1,000 nmol/L",3.8%
same,"Protein level of IL-6, Percent (%) of control Experiment 3","[2]; 1,000 nmol/L",2.9%
same,IL-6 (ng/million cells) Mean,"[2]; 10,000 nmol/L",0.2 ng/million cells
same,IL-6 (pg/million cells) Experiment 1,"[2]; 10,000 nmol/L",165 pg/million cells
same,IL-6 (pg/million cells) Experiment 2,"[2]; 10,000 nmol/L",337 pg/million cells
same,IL-6 (pg/million cells) Experiment 3,"[2]; 10,000 nmol/L",132 pg/million cells
same,"Protein level of IL-6, Percent (%) of control Experiment 1","[2]; 10,000 nmol/L",1.3%
same,"Protein level of IL-6, Percent (%) of control Experiment 2","[2]; 10,000 nmol/L",1.3%
same,"Protein level of IL-6, Percent (%) of control Experiment 3","[2]; 10,000 nmol/L",1.6%
same,activity at 0.001 µM,"[2]; Homo sapiens, LOX, 1 nmol/L, read-out: Protein level of IL-6, Mean % of control",72.2%
same,activity at 0.01 µM,"[2]; Homo sapiens, LOX, 10 nmol/L, read-out: Protein level of IL-6, Mean % of control",65%
same,activity at 0.1 µM,"[2]; Homo sapiens, LOX, 100 nmol/L, read-out: Protein level of IL-6, Mean % of control",3.6%
same,activity at 1 µM,"[2]; Homo sapiens, LOX, 1,000 nmol/L, read-out: Protein level of IL-6, Mean % of control",3.8%
same,activity at 10 µM,"[2]; Homo sapiens, LOX, 10,000 nmol/L, read-out: Protein level of IL-6, Mean % of control",1.4%
same,IC50,"[2]; Homo sapiens, LOX melanoma cell line, read-out: mean calculated IC50, IL-6 protein level",21.8 nM
same,Plasma IL-8 levels,[3],did not change
same,Plasma IL-8 levels,[4],almost completely blocked
same,Plasma IL-8 levels,[5],almost completely blocked
